Measurements reported in patent publication US7250410B2, “Cyclic nucleotide phosphodiesterase inhibitors, preparation and uses thereof” (Via Pharmaceuticals, Inc., priority 2001, dated 2007).
“And” between values parts separate entries of the source, which are not always exact repeats. Equal values may be shown once.

What was measured:
[1] = biological target: PDE4; assay: Inhibition of PDE4, radioenzymatic phosphodiesterase assay; assay type: biochemical, bovine
Procedure, shortened: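 PDE4 partially purified from bovine aortic media by 105,000 g centrifugation and anion-exchange chromatography with an NaCl gradient. Activity measured radioenzymatically: product nucleoside separated from nucleotides by anion exchange and counted by liquid scintillation.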

[2] = tested on: PDE1; assay: Selectivity: inhibition of PDE1, radioenzymatic phosphodiesterase assay; assay type: biochemical, bovine; parameters: PDE1 percentage inhibition at 10 μM: unit: %; conditions: Table 4 Selectivity; for PDE1 percentage inhibition at 10 μM: compound at 10 μM
Experimental: (§1) A 3 g segment of bovine aortic media cut into pieces with scissors was homogenized with an ultra-turrax then a potter glass/glass homogenizer in 7 volumes by weight of buffer A containing a protease inhibitor cocktail (20 mM Tris-HCl, 0.25 M saccharose, 2 mM magnesium acetate, 1 mM dithiothreitol, 5 mM EGTA, 2000 U/ml aprotinin, 10 mg/l leupeptin and 10 mg/l soya trypsic inhibitor). The homogenizate was centrifuged at 105,000 g for 1 hour. The supernatant was loaded on a DEAE-Sephacel column (15×1.6 cm) pre-equilibrated with buffer B (buffer A without the saccharose, EGTA and protease inhibitors). The column was washed until there was no detectable absorption at 280 nm, then eluted with a linear gradient of NaCl (0–0.5 M) in buffer B. 3-ml fractions were collected and enzyme activity was determined under the conditions described hereinafter to localize the different enzymes PDE1, PDE3, PDE4 and PDE5, which were aliquoted and frozen at −80° C. (Lugnier et al., Biochem. Phamacol., 35 (1986) 1746–1751). PDE2 was prepared from bovine endothelial cells by the same methods (Lugnier and Schini, Biochem. Pharmacol. 1990, 39; 75–84).
(§2) Cyclic nucleotide phosphodiesterase activity was determined by a radioenzymatic method using tritium-labelled cyclic GMP or AMP (1 μM) as substrate (Lugnier et al., 1986). ^3H-labelled adenosine or guanosine monophosphate formed by hydrolysis of the radiolabelled cyclic nucleotide was then converted to ^3H-labelled adenosine or guanosine in a second reaction with […] in excess. The nucleoside formed was separated from the nucleotides by anion exchange chromatography. Nucleoside radioactivity was determined by liquid scintillation counting. Enzymatic incubations were carried out under conditions allowing no more than 15% hydrolysis of the substrate; each point was performed in duplicate.
(§3) The activity of the compounds was evaluated on other phosphodiesterase isoforms, particularly basal state or calmodulin-activated PDE1 from vascular smooth muscle, basal state or cyclic GMP-activated PDE2 from vascular endothelial cells, PDE3 and PDE5 from vascular smooth muscle.
(§4) The results obtained are presented in Table 4 hereinafter and are expressed as the percentage inhibition of enzymatic activity produced by […] of the tested compound.

[3] = biological target: T1, PDE2 (Bos taurus, UniProt P14099); assay: Selectivity: inhibition of PDE2, radioenzymatic phosphodiesterase assay; assay type: biochemical, bovine; conditions: Table 4 Selectivity; for inhibition at 10 µM: compound at 10 μM, read-out: PDE2 percentage inhibition at 10 μM
T1 construct: PDE2 was prepared from bovine endothelial cells by the same methods; endogenous in cells; host or cells: bovine vascular endothelial cells, DEAE-Sephacel fraction
T1 sequence (P14099 1-921): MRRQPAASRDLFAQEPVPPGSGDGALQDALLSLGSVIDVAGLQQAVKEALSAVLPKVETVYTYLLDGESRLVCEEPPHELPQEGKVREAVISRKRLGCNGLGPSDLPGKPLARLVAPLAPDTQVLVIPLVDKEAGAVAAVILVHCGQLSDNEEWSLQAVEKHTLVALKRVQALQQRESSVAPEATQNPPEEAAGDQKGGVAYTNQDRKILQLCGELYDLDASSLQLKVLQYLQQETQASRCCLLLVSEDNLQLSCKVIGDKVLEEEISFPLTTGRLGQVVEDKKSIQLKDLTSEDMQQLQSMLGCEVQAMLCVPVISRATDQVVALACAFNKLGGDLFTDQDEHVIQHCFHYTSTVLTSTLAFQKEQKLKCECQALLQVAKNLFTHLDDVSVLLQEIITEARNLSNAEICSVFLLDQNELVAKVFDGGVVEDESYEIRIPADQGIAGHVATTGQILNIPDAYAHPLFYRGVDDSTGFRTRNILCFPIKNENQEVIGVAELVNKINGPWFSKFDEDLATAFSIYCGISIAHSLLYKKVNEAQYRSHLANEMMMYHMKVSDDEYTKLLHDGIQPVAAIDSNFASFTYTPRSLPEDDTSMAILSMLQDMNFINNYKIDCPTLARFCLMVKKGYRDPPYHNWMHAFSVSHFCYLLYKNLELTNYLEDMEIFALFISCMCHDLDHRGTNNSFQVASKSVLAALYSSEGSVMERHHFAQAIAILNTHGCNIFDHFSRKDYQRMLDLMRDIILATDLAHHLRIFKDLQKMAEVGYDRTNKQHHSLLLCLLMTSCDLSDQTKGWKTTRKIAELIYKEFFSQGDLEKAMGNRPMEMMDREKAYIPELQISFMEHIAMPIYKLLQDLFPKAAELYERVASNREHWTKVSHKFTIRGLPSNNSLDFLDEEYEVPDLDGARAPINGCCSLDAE
Experimental: as §1, §2, §3, §4

[4] = biological target: T2, PDE3 (Bos taurus, UniProt A0A3Q1M1E8); assay: Selectivity: inhibition of PDE3, radioenzymatic phosphodiesterase assay; assay type: biochemical, bovine; conditions: read-out: PDE3 percentage inhibition at 10 μM
T2 sequence (A0A3Q1M1E8 1-1126): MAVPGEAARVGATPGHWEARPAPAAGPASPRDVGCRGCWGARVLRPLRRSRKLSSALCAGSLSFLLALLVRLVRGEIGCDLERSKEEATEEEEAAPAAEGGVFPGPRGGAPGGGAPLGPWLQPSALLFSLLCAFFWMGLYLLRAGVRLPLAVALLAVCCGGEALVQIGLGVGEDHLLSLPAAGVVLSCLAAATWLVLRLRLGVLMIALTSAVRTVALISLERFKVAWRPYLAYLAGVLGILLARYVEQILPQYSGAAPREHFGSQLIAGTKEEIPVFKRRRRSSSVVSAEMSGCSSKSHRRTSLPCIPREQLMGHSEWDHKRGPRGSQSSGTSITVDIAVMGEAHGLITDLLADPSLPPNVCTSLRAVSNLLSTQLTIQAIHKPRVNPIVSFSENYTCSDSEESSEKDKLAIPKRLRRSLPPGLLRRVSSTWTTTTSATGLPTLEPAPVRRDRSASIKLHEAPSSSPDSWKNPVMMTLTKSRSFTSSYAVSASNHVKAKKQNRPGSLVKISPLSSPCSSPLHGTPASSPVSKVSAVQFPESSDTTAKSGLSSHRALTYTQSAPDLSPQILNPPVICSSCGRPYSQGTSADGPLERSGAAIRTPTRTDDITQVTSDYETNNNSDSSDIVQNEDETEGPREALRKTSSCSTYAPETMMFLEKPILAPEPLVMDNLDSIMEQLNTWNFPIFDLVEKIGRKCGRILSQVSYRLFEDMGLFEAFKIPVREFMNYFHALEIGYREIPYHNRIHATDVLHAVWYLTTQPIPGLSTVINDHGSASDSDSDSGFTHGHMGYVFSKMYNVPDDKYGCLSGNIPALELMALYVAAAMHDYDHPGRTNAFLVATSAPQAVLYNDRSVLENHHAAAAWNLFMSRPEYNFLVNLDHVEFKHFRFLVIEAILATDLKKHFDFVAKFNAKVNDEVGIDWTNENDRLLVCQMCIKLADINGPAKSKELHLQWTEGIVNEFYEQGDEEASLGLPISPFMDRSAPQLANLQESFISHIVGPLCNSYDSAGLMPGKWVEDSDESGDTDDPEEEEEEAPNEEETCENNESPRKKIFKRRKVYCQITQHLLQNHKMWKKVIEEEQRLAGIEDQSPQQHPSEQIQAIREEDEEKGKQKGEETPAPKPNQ
Experimental: as §1, §2, §3, §4

[5] = biological target: T3, PDE5 (Bos taurus, UniProt Q28156); assay: Selectivity: inhibition of PDE5, radioenzymatic phosphodiesterase assay; assay type: biochemical, bovine; conditions: Table 4 Selectivity
T3 construct: localize the different enzymes PDE1, PDE3, PDE4 and PDE5, which were aliquoted and frozen; from tissue; host or cells: bovine aortic media (vascular smooth muscle), DEAE-Sephacel fraction
Experimental: as §1, §2, §3, §4

[6] = tested on: TNFα; assay: TNFα production by LPS-activated mononuclear cells from venous blood (ELISA); assay type: cell-based; conditions: Homo sapiens
Experimental: Compounds according to the invention were assessed for anti-inflammatory properties on mononuclear cells from venous blood of healthy donors (n=4), by a protocol approved by the Alsace No. 1 Ethics Committee. More specifically, the cells were incubated for 24 hours in 24-well plates in the presence of the test compound, after activation by Salmonella Abortis Equi lipopolysaccharide (LPS) (5 pg/ml) (cf. De Groote et al., Cytokine 4, 1992, 239). After incubation, TNFα concentrations were determined in the culture supernatant by an ELISA method (Antibody Solutions, Half Moon Bay, Calif., USA).

[7] = tested on: IL1β, IL6 and IL8; assay: IL1β, IL6 and IL8 secretion by LPS-activated mononuclear cells from venous blood; assay type: cell-based, human; conditions: compound at 1 μM
[8] = Table 2, formula (XXII), 1 μM cyclic AMP
[9] = Table 1, formula (III), 1 μM cyclic AMP
[10] = Table 3, formula (II), 1 μM cyclic AMP

Compound: CCOc1cc2c(cc1OCC)C(c1ccccc1)=NC(C)C(=O)N2 (stereo not drawn) [XXIIai, 7,8-diethoxy-3-methyl-5-phenyl-1,3-dihydro-2H-1,4-benzodiazepin-2-one]
- IC50 [1, 8]: 1700 nM
- IC50 ([1]; Table 4 Selectivity): 1700 nM
- PDE1 percentage inhibition at 10 μM [2]: 55%
- inhibition at 10 µM [3]: 6%
- inhibition at 10 µM [4]: 55%

Compound: COc1cc2c(cc1OC)C(c1ccc(-c3ccco3)cc1)=NN(C)C(=O)C2 [IIIav, 1-[4-(2-furyl)phenyl]-7,8-dimethoxy-3-methyl-3,5-dihydro-4H-2,3-benzodiazepin-4-one]
- IC50 [1, 9]: 900 nM
- IC50 ([1]; Table 4 Selectivity): 900 nM
- PDE1 percentage inhibition at 10 μM [2]: 49%
- IC50 [3]: 19000 nM
- inhibition at 10 µM [4]: 92%
- IC50 [5]: 40000 nM

Compound: CCOc1cc2c(cc1OC)C(c1ccccc1)=NCC(=O)N2 [XXIIam, 8-ethoxy-7-methoxy-5-phenyl-1,3-dihydro-2H-1,4-benzodiazepin-2-one]
- IC50 [1, 8]: 700 nM
- IC50 ([1]; Table 4 Selectivity): 700 nM
- PDE1 percentage inhibition at 10 μM [2]: 29%
- inhibition at 10 µM [3]: 36%
- inhibition at 10 µM [4]: 36%
- inhibition at 10 µM ([5]; compound at 10 μM, read-out: PDE5 percentage inhibition at 10 μM): 35%

Compound: CCOc1cc2c(cc1OCC)C(CC)C(=O)N(C)N=C2c1cc2ccccc2s1 (stereo not drawn) [IIIbb, 1-(2-benzo[b]thienyl)-7,8-diethoxy-5-ethyl-3-methyl-3,5-dihydro-4H-2,3-benzodiazepin-4-one]
- IC50 [1, 9]: 87 nM
- IC50 ([1]; Table 4 Selectivity): 87 nM
- IC50 [2]: 14000 nM
- inhibition at 10 µM [3]: 25%
- IC50 [5]: 5700 nM

Compound: CCOc1cc2c(cc1OCC)N(CC)C(=O)CN=C2c1ccccc1 [IIbg, 7,8-diethoxy-1-ethyl-5-phenyl-1,3-dihydro-2H-1,4-benzodiazepin-2-one]
- IC50 [1, 10]: 900 nM and 1600 nM
- IC50 ([1]; Table 4 Selectivity): 900 nM
- PDE1 percentage inhibition at 10 μM [2]: 47%
- inhibition at 10 µM [3]: 20%
- inhibition at 10 µM [4]: 40%

Compound: COc1cc2c(cc1OC)C(c1cc3ccccc3s1)=NN(C)C(=O)C2 [IIIab, 1-(2-benzo[b]thienyl)-7,8-dimethoxy-3-methyl-3,5-dihydro-4H-2,3-benzodiazepin-4-one]
- IC50 [1, 9]: 300 nM
- IC50 ([1]; Table 4 Selectivity): 300 nM
- IC50 [2]: 3810 nM
- IC50 [3]: 16000 nM
- IC50 [5]: 4300 nM
- inhibition at 1 µM ([6]; compound at 1 μM, 24 hours, LPS 5 pg/ml, read-out: inhibition of TNFα production): 100%
- IL1β, IL6 and IL8 secretion levels [7]: not at all altered

Compound: CCOc1cc2c(cc1OC)C(c1ccccc1)=NC(Cc1cccc(C(N)=O)c1)C(=O)N2C (stereo not drawn) [IIdh, 3-[(8-ethoxy-7-methoxy-1-methyl-2-oxo-5-phenyl-2,3-dihydro-1H-1,4-benzodiazepin-3-yl)methyl]benzamide]
- IC50 [1, 10]: 520 nM
- IC50 ([6]; read-out: anti-TNFα activity IC50): 100 to 1000 nM
